Several values for one entry are separate records, joined by “and”; a condition that tells them apart may be missing. Equal entries are not always repeated. Where two headings read alike, the source gives them in different places. Marks after values point to notes of the source that are not given here.
Experiments:
[1] = test system: VCaP; assay: PCa cell viability proliferation screening (MTS), VCaP; type: cell-based; conditions: Homo sapiens, 168 h, AR positive, seven days
Method: VCaP (4 × 10^4 cells/well) were seeded in 96-well plates in DMEM media supplemented with 10% fetal bovine serum (FBS), penicillin, streptomycin, and sodium pyruvate. 22Rv1 cells (2 × 10^3 cells/well) and LAPC-4 cells (6 × 10^3 cells/well) were seeded in 96-well plates in RPMI media supplemented with 10% FBS, penicillin, streptomycin, and sodium pyruvate. The cells were incubated at 37 °C in a 5% CO2 humidified atmosphere for 24 h before treatment with multiple concentrations of RM-581 dissolved in dimethyl sulfoxide (DMSO). The concentrations used were between 0.01 μM and 50 μM. Treatment lasted for 3 days for all the cell lines except VCaP cells, which were treated for 7 days due to slower proliferation rates. At the end of the assay, 20 μL of MTS (Cell Titer 96 Aqueous, Promega, Nepean, ON, Canada) were added to each well, and the mixture was incubated for 4 h at 37 °C. The plates were subsequently analyzed at 490 nm using a Tecan M-200 microplate reader (Männedorf, Switzerland).

[2] = test system: LAPC-4 cells; assay: LAPC-4 cell viability proliferation and combination index assays (MTS, 6 days); type: cell-based, human
Method: LAPC-4 cells (1 × 10^4 cells/well) were seeded in triplicate in 96-well plates in IMDM (Iscove’s modified Dulbecco’s medium) (90 μL) supplemented (v/v) with 5% fetal FBS, 1% L-glutamine, 1% insulin, and 1% penicillin/streptomycin. The cells were incubated at 37 °C in a 5% CO2 humidified atmosphere for 24 h. […] After 6 days of incubation, the cell proliferation was determined by adding 10 µL of MTS followed by incubation at 37 °C for 4 h. Plates were then analyzed at 490 nm using a Tecan M-200 microplate reader (Männedorf, Switzerland). Using GraphPad Prism 7 software, the IC50 values were calculated. The values represent the average of two independent experiments performed in triplicate. According to the Chou–Talalay method and using the following formula, the CI (combination) was calculated. CI=(D)1/(DX)1+(D)2/(DX)2
Denominators (DX)l and (DX)2 are the doses of individual drugs required to achieve a given effect level, and numerators (D)1 and (D)2 are the concentrations of each drug present in combination to trigger the same effect level. When the drugs interact additively, CI = 1, but a CI < 1 indicates a synergistic interaction, and a CI > 1 indicates an antagonistic effect.

[3] = test system: LAPC-4 cells; assay: Apoptosis characterization by flow cytometry (annexin-V/PI); type: cell-based, human; conditions: 72 h
Method: This experiment was performed with LAPC-4 cells (3 × 10^5) following the protocol previously reported for PC-3 cells. After the detection of annexin-V and propidium iodide fluorescence, dual parametric dot plots allowed us to calculate the percentage of each cell type: (1) non-apoptotic live cells (annexin-V-negative/PI-negative) in the lower left quadrant; (2) early apoptotic cells (annexin-V-positive/PI-negative) in the lower right quadrant; (3) late apoptotic cells (annexin-V-positive/PI-positive) in the upper right quadrant; and (4) necrotic cells (annexin-V-negative/PI-positive) in the upper left quadrant.

[4] = test system: LAPC-4 xenografts; assay: Cholesterol/lipid panel in plasma (method B, hospital laboratory); type: in vivo, mice
Method: Total cholesterol, triglycerides, cholesterol-HDL (high-density lipoproteins), cholesterol-LDL (low-density lipoproteins), cholesterol non-HDL, and the ratio of total cholesterol/cholesterol-HDL were determined in the plasma of mice treated PO with RM-581 (3, 10, and 30 mg/kg) or abiraterone acetate (60 mg/kg). Analyses were performed at the CHU de Québec/L’Enfant-Jésus (Medical Hospital Laboratory; Project N°: 9014625056) using a Cobas Lipid Panel from Roche.

[5] = test system: LAPC-4 cells; assay: Gene expression study by qPCR; type: cell-based, human; conditions: RM-581 5 µM or atorvastatin 10 µM, CTL fixed at 1.0
Method: LAPC-4 cells (3 × 10^5) were treated with RM-581 (1, 2, and 5 µM) at different times (6, 18, 24, and 36 h) and the expression of various genes was determined as previously reported. Primer sequences used for the analysis of each gene are reported in Table S3 (Supplementary Materials).

[6] = test system: LAPC-4 cells; assay: Total cholesterol in LAPC-4 cells (kit); type: cell-based, human; conditions: RM-581 2 μM or atorvastatin 10 μM; for Total cholesterol concentration in LAPC-4 cells: Table S2
Method: A cholesterol quantification kit provided by Sigma-Aldrich (Catalog Number MAK043) was used following the manufacturer’s instructions to determine the concentration of total cholesterol, free cholesterol, and cholesteryl ester in samples. The cholesterol contents were measured in samples from two different protocols. […] Secondly, in tumor, liver, and plasma obtained at the end of the LAPC-4 xenograft experiment (control group and the group treated with RM-581 at 10 mg/kg/PO).

[7] = test system: LNCaP; parameters: method as in PMID 34681843; conditions: AR positive, three days, MTS; cited from earlier work

`C#C[C@]1(O)CC[C@H]2[C@@H]3CCc4cc(OC)c(N5CCN(C(=O)[C@@H]6CCCN6C(=O)c6ccc7ccccc7n6)CC5)cc4[C@H]3CC[C@@]21C` [RM-581] gave an IC50 [1] of 5780 nM, an IC50 ([2]; Homo sapiens, LAPC4, 144 h, LAPC-4, six days of treatment, read-out: IC50, single experiments (Figure 2A)) of 450 nM and an IC50 ([2]; Homo sapiens, LAPC4, 144 h, LAPC-4, six days, slightly different culture conditions, read-out: IC50, single experiments (Figure 3)) of 510 nM. It also gave an IC50 ([2]; Homo sapiens, LAPC4, 144 h, LAPC-4, six days, slightly different culture conditions, read-out: Mean IC50 (Figure 3)) of 570 ± 140 nM, an IC50 ([2]; Homo sapiens, LAPC4, 144 h, LAPC-4, six days, single drugs and 1:1 combinations, read-out: IC50 (Figure 2B)) of 560 nM and an IC50 ([2]; Homo sapiens, LAPC4, LAPC-4, read-out: IC50 in LAPC-4 cells, approximate summary value) of about 500 nM. The IC50 ([2]; LAPC-4, six days of treatment, read-out: IC50, single experiments (Figure 2A)) was 300 nM and 550 nM, the IC50 ([2]; LAPC-4, six days, slightly different culture conditions, read-out: IC50, single experiments (Figure 3)) was 470 nM and 730 nM and the “early and late apoptotic cells” value ([3]; 2 to 50 µM) was “significant and increasing proportion”. The necrotic cells ([3]; 30 and 50 µM) was “very low and non-significant”, the viable cells ([3]; 30 and 50 µM, dropped from 92%) was 20% and the “T-CHOL (total cholesterol), plasma” value ([4]; 10 mg/kg PO, NS vs CTL) was 1182 ± 338 (NS) µg/mL. For the same compound, the “plasma triglycerides, cholesterol-HDL, -LDL, non-HDL, ratio total cholesterol/cholesterol-HDL vs control” value ([4]; Figure S3) was “no significant difference”, the “ACAT1 mRNA expression” value ([5]; 6 h) was 0.7 * and the “ACLY mRNA expression” value ([5]; 6 h) was 0.8. For the same compound, the “FASN mRNA expression” value ([5]; 6 h) was 1.0, the “HMGCR mRNA expression” value ([5]; 6 h) was 1.9 ** and the “HMGCS1 mRNA expression” value ([5]; 6 h) was 2.7 **. For the same compound, the “LDLR mRNA expression” value ([5]; 6 h) was 1.4, the “MVD mRNA expression” value ([5]; 6 h) was 2.7 ** and the “MVK mRNA expression” value ([5]; 6 h) was 1.2. For the same compound, the “SCD1 mRNA expression” value ([5]; 6 h) was 0.7, the “ACAT1 mRNA expression” value ([5]; 18 h) was 0.9 and the “ACLY mRNA expression” value ([5]; 18 h) was 0.4 **. The “FASN mRNA expression” value ([5]; 18 h) was 0.5 **, the “HMGCR mRNA expression” value ([5]; 18 h) was 1.2 and the “HMGCS1 mRNA expression” value ([5]; 18 h) was 3.3 **. For the same compound, the “LDLR mRNA expression” value ([5]; 18 h) was 1.8 **, the “MVD mRNA expression” value ([5]; 18 h) was 1.8 ** and the “MVK mRNA expression” value ([5]; 18 h) was 1.6. For the same compound, the “SCD1 mRNA expression” value ([5]; 18 h) was 0.8, the “ACAT1 mRNA expression” value ([5]; 24 h) was 1.1 and the “ACLY mRNA expression” value ([5]; 24 h) was 0.9. For the same compound, the “FASN mRNA expression” value ([5]; 24 h) was 0.6 *, the “HMGCR mRNA expression” value ([5]; 24 h) was 2.6 ** and the “HMGCS1 mRNA expression” value ([5]; 24 h) was 2.4 **. The “LDLR mRNA expression” value ([5]; 24 h) was 2.6 **, the “MVD mRNA expression” value ([5]; 24 h) was 2.1 ** and the “MVK mRNA expression” value ([5]; 24 h) was 1.0. For the same compound, the “SCD1 mRNA expression” value ([5]; 24 h) was 2.5 **, the “ACAT1 mRNA expression” value ([5]; 36 h) was 1.2 and the “ACLY mRNA expression” value ([5]; 36 h) was 0.9. For the same compound, the “FASN mRNA expression” value ([5]; 36 h) was 0.6 *, the “HMGCR mRNA expression” value ([5]; 36 h) was 2.5 ** and the “HMGCS1 mRNA expression” value ([5]; 36 h) was 2.0 **. The “LDLR mRNA expression” value ([5]; 36 h) was 2.5 **, the “MVD mRNA expression” value ([5]; 36 h) was 1.6 ** and the “MVK mRNA expression” value ([5]; 36 h) was 1.0. The “SCD1 mRNA expression” value ([5]; 36 h) was 3.5 **, the “Total cholesterol in LAPC-4 cells vs untreated cells” value ([6]; 18, 36, or 72 h) was “did not show a significant difference” and the “Total cholesterol concentration in LAPC-4 cells” value (from here on “Total cholesterol concentration”) ([6]; 18 h) was 68 ± 3. The “Total cholesterol concentration” value ([6]; 36 h) was 69 ± 6, the “Total cholesterol concentration” value ([6]; 72 h (first line, control 66 ± 2)) was 69 ± 4 and the IC50 [7] was 1200 nM.

— publication PMC10252594 (Cancers, 2023)
